These results are taken from patent US20160222014A1, “COMPOUNDS FOR REGULATING FAK AND/OR SRC PATHWAYS” (ASANA BIOSCIENCES, LLC, priority 2013, published 2016).

Broadly, the IC50 is the concentration that inhibits the measured activity by half. For orientation: EC50 means the concentration needed to bring the measured effect to its halfway point.

T2 sequence (Q05397 whole entry): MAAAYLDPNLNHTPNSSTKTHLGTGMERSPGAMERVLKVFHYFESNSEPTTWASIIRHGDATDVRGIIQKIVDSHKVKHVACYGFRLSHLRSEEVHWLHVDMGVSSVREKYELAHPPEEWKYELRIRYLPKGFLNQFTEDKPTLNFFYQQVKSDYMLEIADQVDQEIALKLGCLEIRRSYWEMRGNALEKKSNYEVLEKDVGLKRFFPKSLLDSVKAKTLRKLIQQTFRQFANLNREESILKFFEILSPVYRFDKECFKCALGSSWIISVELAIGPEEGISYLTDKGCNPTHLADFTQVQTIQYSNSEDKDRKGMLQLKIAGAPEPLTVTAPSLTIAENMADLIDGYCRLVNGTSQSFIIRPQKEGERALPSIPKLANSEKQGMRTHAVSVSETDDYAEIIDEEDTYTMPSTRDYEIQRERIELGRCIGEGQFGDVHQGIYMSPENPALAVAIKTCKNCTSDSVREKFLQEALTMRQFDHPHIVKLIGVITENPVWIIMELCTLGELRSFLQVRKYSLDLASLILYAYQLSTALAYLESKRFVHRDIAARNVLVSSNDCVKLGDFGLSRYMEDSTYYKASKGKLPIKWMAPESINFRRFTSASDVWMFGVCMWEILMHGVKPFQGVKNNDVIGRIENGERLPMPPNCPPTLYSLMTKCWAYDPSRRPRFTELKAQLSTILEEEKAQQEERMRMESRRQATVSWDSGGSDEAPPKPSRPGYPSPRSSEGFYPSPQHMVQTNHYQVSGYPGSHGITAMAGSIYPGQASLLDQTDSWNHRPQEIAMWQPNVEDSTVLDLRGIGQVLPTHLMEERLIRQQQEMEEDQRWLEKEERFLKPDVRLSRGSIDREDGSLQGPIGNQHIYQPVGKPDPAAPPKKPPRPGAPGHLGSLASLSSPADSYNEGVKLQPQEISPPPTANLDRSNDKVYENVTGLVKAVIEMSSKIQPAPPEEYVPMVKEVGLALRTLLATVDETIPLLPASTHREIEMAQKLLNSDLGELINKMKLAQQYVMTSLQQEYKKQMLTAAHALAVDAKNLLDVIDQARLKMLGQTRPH
T1 sequence (Q05397 422-680 limits assumed): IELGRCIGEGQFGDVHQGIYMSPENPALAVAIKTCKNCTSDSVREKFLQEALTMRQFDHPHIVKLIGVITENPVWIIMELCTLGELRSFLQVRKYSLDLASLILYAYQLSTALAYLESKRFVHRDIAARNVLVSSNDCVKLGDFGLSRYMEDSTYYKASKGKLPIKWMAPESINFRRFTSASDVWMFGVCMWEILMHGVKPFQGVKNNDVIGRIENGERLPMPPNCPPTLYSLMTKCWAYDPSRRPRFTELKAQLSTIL

The first test has as its target T1, recombinant human FAK1 (Homo sapiens, UniProt Q05397).
T1 construct: fused on or other part: N-terminal 6xHis tag
The test is described as follows: FAK1 HTRF assay. It counts as biochemical.
Conditions: not given
The method in brief:
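IC50 values derive from HTRF % inhibition (ratio 665/620 nm, Eu–anti-phosphotyrosine 0.1 nM, SA-APC 12 nM). The kinase step ran 45 min at room temperature, pairing 10 nM His-FAK1(692–end) from baculovirus with 0.5 μM gastrin Tyr87 biotin-peptide and a reagent at 10 μM final, pH 7.4. Compound dilutions began at 10 μM.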
Regarding `CN(c1ccccc1Cn1ccc2cnc(Nc3ccc4c(c3)CC3CNCCN43)nc21)S(C)(=O)=O` (stereo not drawn) [Example 526], the IC50 is under 20 nM. With `COc1ccc(N(C)S(C)(=O)=O)c(Cn2ccc3cnc(Nc4ccc(N5CCC(N(C)C)CC5)cc4)nc32)c1` [Example 706], the IC50 was under 20 nM.

Another test addresses T2, FAK phosphorylated at Y397 in HEK-FAK cell line overexpressing human FL FAK protein (Homo sapiens, UniProt Q05397).
T2 construct: expressed in transfected cells
The test is described as follows: Cell based assay, Phospho-FAK ELISA. Conditions: HEK stb; read-out: pFAK EC50 (μM) HEK stb. An excerpt:
D. Cell Based Assay-Phospho-FAK ELISA
The DuoSet IC ELISA (R&D systems—Cat no. DYC4528-5) provided the basic components required for the development of sandwich ELISAs to measure Focal Adhesion Kinase 1 (FAK) phosphorylated at Y397 in cell lysates. An immobilized capture antibody specific for FAK, also known as PTK2, binds both phosphorylated and unphosphorylated protein. After washing away unbound material, a biotinylated detection antibody specific for FAK phosphorylated at Y397 was used to detect only phosphorylated protein, utilizing a standard Streptavidin-HRP format. The cell line used for the assay was a stable HEK-FAK cell line overexpressing human FL FAK protein, which was generated as follows.
HEK293 cells (ATCC® CRL-1573™, 10801 University Boulevard, Manassas, Va. 20110 USA) were seeded in four 100 mm petri dishes at a seeding density of 1.5×10^6 cells per plate and incubated overnight at 37° C. in a 5% CO2 incubator. The transfection mix was prepared as follows. (A) 10 μg DNA (pCDNA4 V5/HisA vector containing Zeocin as mammalian selection marker, procured from Invitrogen) with the full length human FAK gene represented by the nucleotide sequence provided in NCBI Reference Sequence: NM_153831.3, SEQ ID NO: 1:
was added to 1.5 mL Opti-MEM® (reduced serum media is a modification of Eagle's Minimum Essential Media, buffered with HEPES and sodium bicarbonate and supplemented with hypoxanthine, thymidine, sodium pyruvate, L-glutamine, trace elements and growth factors commercially available from Invitrogen) and incubated at room temperature for 5 minutes. (B) 30 μL Lipofectamine™ Transfection reagent (Life Technologies) was added to 1.5 mL Opti-MEM® and incubated at room temperature for 5 minutes. Following this, (a) and (b) were mixed and incubated at room temperature for 20 minutes. Media was removed from cells and washed with 1× phosphate buffered saline (PBS) and the transfection mix prepared above was mixed with 3 mL of Opti-MEM®, added to the cells and incubated at 37° C. Four hours later, 6 mL of 20% Dulbecco's Modified Eagle Medium (DMEM) was added to the plates and incubated at 37° C. in a 5% CO2 incubator. Approximately 72 hours after transfection, cells were subcultured at various dilutions with fresh medium containing 0.8 mg/mL Zeocin™ (Life Technologies). Cells were replenished with selective medium every 3-4 days until cell foci were identified in the FAK transfected cells and most of the cells died in the control plates. Cells from these foci were grown in the presence of selective media and the expression of FAK was confirmed by Western Blotting. Over expression of FAK in the stably-transfected cells was quantified in the cell-based ELISA assay described below by determining the signal window, with a signal window of 2 or above considered to be robust). The HEK-FAK stable cell line thus was maintained in 0.8 mg/mL Zeocin™ (Life Technologies) and used in cell-based ELISA to assess autophosphorylation of FAK.
(i) Materials • 1. Phospho-FAK (Y397)-Capture Antibody • 2. Phospho-FAK (Y397)-Detection Antibody • 3. Streptavidin-HRP • 4. Cells used for the assay-HEK over expressing human FL FAK protein
(ii) Solutions • PBS—137 mM NaCl, 2.7 mM KCl, 8.1 mM Na2HPO4, 1.5 mM KH2PO4, pH 7.2-7.4, 0.2 μm filtered. • Wash Buffer—0.05% Tween20™ in PBS, pH 7.2-7.4 • Block Buffer—1% BSA, 0.05% NaN3, in PBS, pH 7.2-7.4. • IC Diluent #1-1% BSA in PBS, pH 7.2-7.4, 0.2 μm filtered. • IC Diluent #8-1 mM EDTA, 0.5% Triton™ X-100, 5 mM NaF in PBS, pH 7.2-7.4. IC Diluent #8 was also the base buffer for IC Diluent #3, IC Diluent #7, and Lysis. • Buffer #6. […]
A general note: ELISA stands for enzyme-linked immunosorbent assay.
In the case of `O=S(=O)(c1cccc(Cl)c1)n1ncc2cnc(Nc3ccc(N4CCNCC4)cc3)cc21` [Example 308], the EC50 is over 1 µM. Same read-out and setting: as for `CN(c1ccccc1Cn1ccc2cnc(Nc3ccc4c(c3)CC3CNCCN43)nc21)S(C)(=O)=O` (stereo not drawn) [Example 526], the figure is over 1 µM. Same read-out and setting: in the case of `CN(c1ncccc1Cn1ccc2cnc(Nc3ccc(OCCN4CCOCC4)cc3)nc21)S(C)(=O)=O` [Example 613] it was over 1 µM; in that of `C[C@H]1CN(C)CCN1c1ccc(Nc2ncc3ccn(Cc4cccnc4N(C)S(C)(=O)=O)c3n2)cc1` [Example 497], over 1 µM. Still for that read-out and setting: in the case of `CN(c1ccccc1Cn1ccc2cnc(Nc3ccc4[nH]c(C(=O)N5CCNCC5)cc4c3)nc21)S(C)(=O)=O` [Example 698] it was over 1 µM; in that of `COc1ccc(N(C)S(C)(=O)=O)c(Cn2ccc3cnc(Nc4ccc(N5CCC(N(C)C)CC5)cc4)nc32)c1` [Example 706], under 0.02 µM; in that of `CCC1CN(c2ccc(Nc3ncc4ccn(Cc5cccnc5N(C)S(C)(=O)=O)c4n3)cc2)CCN1` (stereo not drawn) [Example 645], over 1 µM.

On to `C[C@H]1CN(c2ccc(Nc3ncc4ccn(Cc5ccccc5NS(=O)(=O)CCCF)c4n3)cc2)CCN1` [Example 723], for which the EC50 was over 1 µM. Same read-out and setting: in the case of `C[C@@H](O)CN1CCN(c2ccc(Nc3ncc4ccn(Cc5cccnc5N(C)S(C)(=O)=O)c4n3)cc2)CC1` [Example 666] it was over 1 µM; in that of `CN(c1ncccc1Cn1ccc2cnc(Nc3ccc(N4CCNC(C)(C)C4=O)cc3)nc21)S(C)(=O)=O` [Example 540], over 1 µM; in that of `CN1CCCN(c2ccc(Nc3ncc4ccn(Cc5ccccc5N(C)S(C)(=O)=O)c4n3)cc2)CC1` [Example 520], over 1 µM. On the same count and under the same terms, in the case of `COc1c(Nc2ncc3ccn(Cc4ccccc4N(C)S(C)(=O)=O)c3n2)ccc(N2CCNCC2)c1F` [Example 456] it was over 1 µM. Same read-out and setting: in the case of `CN(c1ncccc1Cn1ccc2cnc(Nc3ccc(N4CCNC(CF)C4)cc3)nc21)S(C)(=O)=O` (stereo not drawn) [Example 737, N-(3-((2-((4-(3-(fluoromethyl)piperazin-1-yl)phenyl)amino)-7H-pyrrolo[2,3-d]pyrimidin-7-yl)methyl)pyridin-2-yl)-N-methylmethanesulfonamide] it was over 1 µM; in that of `CN(c1ncccc1Cn1ncc2cnc(Nc3ccc(N4CCC(O)CC4)cc3)cc21)S(C)(=O)=O` [Example 394], over 1 µM. Consider `Cc1ccccc1S(=O)(=O)n1ccc2cnc(Nc3ccc(N4CCNCC4)cc3)nc21` [Example 233], for which the EC50 is over 1 µM. For `CN(c1ncccc1Cn1ccc2cnc(Nc3ccc(N4CCCNCC4)cc3)nc21)S(C)(=O)=O` [Example 549], the EC50 was over 1 µM. The same measure, in the same setting: as for `CN(c1ccccc1Cn1ccc2cnc(Nc3ccc(N4CCNCC4)c(CO)c3)nc21)S(C)(=O)=O` [Example 568], the figure is over 1 µM; as for `CN(C)C1CCN(c2ccc(Nc3ncc4ccn(Cc5cccnc5N(C)S(C)(=O)=O)c4n3)cc2)CC1` [Example 530], over 1 µM.

Turning to `CN(c1ncccc1Cn1ccc2cnc(Nc3ccc(N4CC5CC4CN5)cc3)nc21)S(C)(=O)=O` (stereo not drawn) [Example 372], the EC50 was over 1 µM. The same measure, in the same setting: in the case of `C[C@@H]1CN(c2ccc(Nc3cc4c(ccn4S(=O)(=O)c4ccccc4C#N)cn3)cc2)CCN1` [Example 537] it was over 1 µM. Still for that read-out and setting: as for `CN(C)C1CCN(c2ccc(Nc3ncc4ccn(Cc5cccnc5N(C)S(C)(=O)=O)c4n3)cc2)C1` (stereo not drawn) [Example 589], the figure is over 1 µM; as for `CN(c1ncccc1Cn1ccc2cnc(Nc3ccc4[nH]c(C5CCNCC5)cc4c3)nc21)S(C)(=O)=O` [Example 677], over 1 µM; as for `CC1(C)CN(S(=O)(=O)c2ccccc2OC(F)F)c2nc(Nc3ccc(N4CCNCC4)cc3)ncc21` [Example 464], over 1 µM. On the same count and under the same terms, as for `CN(c1ncccc1Cn1ccc2cnc(Nc3ccc4c(c3)OCCN4)nc21)S(C)(=O)=O` [Example 221], the figure is over 1 µM. On to `CN(C)Cc1ccc(Nc2ncc3ccn(Cc4cccnc4N(C)S(C)(=O)=O)c3n2)cc1` [Example 207], for which the EC50 is over 1 µM. Same read-out and setting: as for `CC(=O)N1CCN(c2ccc(Nc3cc4c(cn3)cnn4S(=O)(=O)c3ccccc3C#N)cc2)CC1` [Example 341], the figure is over 1 µM; as for `CC1CN(c2ccc(Nc3ncc4ccn(Cc5cccnc5N(C)S(C)(=O)=O)c4n3)cc2)CC(C)N1` (stereo not drawn) [Example 522], over 1 µM. Still for that read-out and setting: in the case of `CN(c1ccccc1Cn1ccc2cnc(Nc3ccc4c(c3)C(=O)NC4=O)nc21)S(C)(=O)=O` [Example 435] it was over 1 µM; in that of `C[C@H](O)CN1CCN(c2ccc(Nc3ncc4ccn(Cc5cccnc5N(C)S(C)(=O)=O)c4n3)cc2)C[C@@H]1C` [Example 663, N-(3-((2-((4-((S)-4-((S)-2-Hydroxypropyl)-3-methylpiperazin-1-yl)phenyl)amino)-7H-pyrrolo[2,3-d]pyrimidin-7-yl)methyl)pyridin-2-yl)-N-methylmethanesulfonamide], over 1 µM; in that of `CN(c1ncccc1Cn1ccc2cnc(Nc3ccc4[nH]ccc4c3)nc21)S(C)(=O)=O` [Example 667], over 1 µM. With `CN(c1ncccc1Cn1ccc2cnc(Nc3ccc4c(c3)CC3CNCCN43)nc21)S(C)(=O)=O` (stereo not drawn) [Example 538], the EC50 was over 1 µM. Same read-out and setting: as for `C[C@@H]1CN(c2ccc(Nc3ncc4ccn(Cc5cccnc5N(C)S(C)(=O)=O)c4n3)cc2F)CCN1` [Example 561], the figure is over 1 µM. Still for that read-out and setting: in the case of `C[C@@H]1CN(c2ccc(Nc3ncc4c(n3)N(c3ccccn3)CC4(C)C)cc2)CCN1` [Example 726] it was over 1 µM; in that of `CN(c1ncccc1Cn1ccc2cnc(Nc3ccc(-c4ccc(=O)[nH]c4)cc3)nc21)S(C)(=O)=O` [Example 688], over 1 µM; in that of `CN(C)C1CN(c2ccc(Nc3ncc4ccn(Cc5cccnc5N(C)S(C)(=O)=O)c4n3)cc2)C1` [Example 580], over 1 µM.

Take `CN(c1ncccc1Cn1ccc2cnc(Nc3ccc(N4CCCC(N)C4)cc3)nc21)S(C)(=O)=O` (stereo not drawn) [Example 776]: the EC50 was over 1 µM.

Turning to `CN1C(=O)Cc2cc(Nc3ncc4ccn(Cc5cccnc5N(C)S(C)(=O)=O)c4n3)ccc21` [Example 560], the EC50 is over 1 µM. The same measure, in the same setting: as for `O=S(=O)(c1ccccc1Cl)n1ncc2cnc(Nc3ccc(N4CCNCC4)cc3)nc21` [Example 254], the figure is over 1 µM; as for `CN(c1ncccc1Cn1ccc2cnc(Nc3ccc(NC4CCNCC4)cc3)nc21)S(C)(=O)=O` [Example 684], over 1 µM; as for `CN(c1ncccc1Cn1ccc2cnc(Nc3ccc4[nH]c(C(=O)N5CCNCC5)cc4c3)nc21)S(C)(=O)=O` [Example 696], over 1 µM. On the same count and under the same terms, as for `C[C@H](O)CN1CCN(c2ccc(Nc3ncc4ccn(Cc5cccnc5N(C)S(C)(=O)=O)c4n3)cc2)C[C@H]1C` [Example 694], the figure is over 1 µM.

The same test, now with this note: HEK stb; read-out: pFAK EC50 HEK stb.
On to `Cc1cc(Nc2ncc3ccn(Cc4cccnc4N(C)S(C)(=O)=O)c3n2)ccc1C1CCN(CCO)CC1` [Example 887], for which the EC50 was over 1 µM. On the same count and under the same terms, as for `CNC(=O)c1ccc(Nc2ncc3ccn(Cc4cccnc4N(C)S(C)(=O)=O)c3n2)cc1` [Example 982], the figure is over 1 µM.
